Read-outs that look alike come from different tables or passages of the source.
Experiments:
[1] = tested on: Raji (lymphoma), Hela (cervical) and PC-3 (prostate) cancer cell line; settings: cited from earlier work
[2] = tested on: A2780 cell line; assay: Binary sequenced combination study (MTT, CI and dose-effect parameters); format: cell-based, human; settings: single drug; for IC50: read-out: Dm (median effect dose)
Protocol: (§1) Binary sequenced combinations of NH3 with curcumin and EGCG have been investigated in both ovarian and colorectal cancer models using four different cell lines.
(§2) The method for determining single drug cytotoxicity and activity of drugs in sequenced combination was the same as described in our previous articles. […] The plates were then left to incubate under normal growth conditions for 72 h. […] Four hours after the addition of the MTT solution (50 µL per well of 1 mg/mL MTT solution), the purple formazan crystals produced from the reduction of MTT were dissolved in 150 µL DMSO and read with a iMarkTM Bio-Rad Microplate Reader Version 1.04.02.E. The IC50 values were obtained from the results of at least three independent experiments. Proteomic study was conducted following same procedure mentioned before in our published research article.

[3] = tested on: A2780^cisR cell line; assay: as above; format: cell-based, human; settings: single drug; for IC50: read-out: Dm (median effect dose)
Protocol: as §1, §2

[4] = tested on: Caco-2 cell line; assay: as above; format: cell-based, human; settings: single drug; for IC50: read-out: Dm (median effect dose)
Protocol: as §1, §2

[5] = tested on: HT-29 cell line; assay: as above; format: cell-based, human; settings: single drug; for IC50: read-out: Dm (median effect dose)
Protocol: as §1, §2

[6] = tested on: A2780 cell line; assay: Proteomic study, protein expression after treatment with NH3 alone; format: cell-based, human
From the text: (§3) The study has provided information on the underlying mechanism of antitumor activity of NH3 alone in different cell lines. Total of 19 (seven from A2780 cell line, nine from A2780^cisR cell line and three from HT-29 cell line) proteins have been identified from the present study that underwent significant changes in expression following treatment with NH3 alone. Change in folds of the respective proteins after treatment with NH3 alone is shown in Table 2 (A2780 cell line), Table 3 (A2780^cisR cell line) and Table 4 (HT-29 cell line).
as §2

[7] = tested on: HT-29 cell line; assay: as above; format: cell-based, human
From the text: as §3, §2

[8] = tested on: A2780^cisR cell line; format: cell-based, human
From the text: as §3, §2

[9] = tested on: Swiss-albino adult male mice; assay: Twenty days in vivo toxicity study; settings: for Survival of mice till the end of the experiment: subcutaneous, twenty days study; for Creatinine / SGOT / SGPT: serum
Protocol: Experimental animals: Thirty six Swiss-albino adult male mice (body weight range 20 ± 5 gm) were purchased from the Department of Pharmacy, Jahangirnagar University, Bangladesh. Mice were housed in a 12 h day night cycle (light on at 7 am and off at 7 pm) providing bench light of 350 lux, at 25 ± 2 °C temperature and 55 ± 10% humidity. Mice were reared in the cages (580 × 375 × 190 mm), supplied with commercially available food pellet [Rodent diet, ICDDRB, Bangladesh] and drinking water ad libitum. Body weight of each mouse was measured twice every day and other physical changes recorded.
Animal sacrifice, blood and organs collection: Twenty four hours following the last treatment and test, the mice were kept in fasting overnight. Then, they were anaesthetized with intraperitoneal injection of sodium pentobarbital (35 mg/kbw) [Phenobarbital, Incepta Pharmaceuticals, Bangladesh] and sacrificed as shown in Table 9
Blood was collected immediately, centrifuged at 1000 rpm, collected plasma and serum were preserved at –80 °C for biochemical study (SGPT, SGOT and Creatinine). Biochemical investigations were carried out in an auto analyzer (Photometer 5010 V5+, Robert Riely, Berlin, Germany) using Sigma Aldrich (Saint Louis, MO, USA) reagent kit. The mice model preliminary toxicity study was approved by the Biosafety, Biosecurity and Ethical Committee [Approval Number: BBEC-JU/M2019(12)1] of Jahangirnagar University, Savar, Dhaka, Bangladesh. Statistical analysis was conducted through SPSS using Satterthwaite’s method for equality of variances.

[10] = tested on: Hela; assay: MTT reduction assay, cytotoxicity; format: cell-based, human; settings: Hela cell line
Protocol: (§4) Dose response curves have been presented in Supplementary File (Figures S1–S5).
as §2

[11] = tested on: A2780; assay: MTT reduction assay, cytotoxicity; format: cell-based, human; settings: parent ovarian A2780 cell line
Protocol: as §4, §2

[12] = tested on: A2780^cisR; assay: MTT reduction assay, cytotoxicity; format: cell-based, human; settings: A2780^cisR cell line
Protocol: as §4, §2

[13] = tested on: MCF-7; assay: MTT reduction assay, cytotoxicity; format: cell-based, human; settings: MCF-7 cell line
Protocol: as §4, §2

[14] = tested on: A2780^ZDO473R; assay: MTT reduction assay, cytotoxicity; format: cell-based, human
Protocol: as §4, §2

Compound: Oc1cccc2cccnc12 [8-Hydroxyquinoline]
- Antitumor activity [1]: significant antitumor activity

Compound: COc1cc(/C=C/C(=O)CC(=O)/C=C/c2ccc(O)c(OC)c2)ccc1O [Curcumin, curcumin]
- IC50 ([2]; Homo sapiens): 8.63 µM
- m (exponent defining the shape of the dose–effect curve) [2]: 1.25
- IC50 ([3]; Homo sapiens, A2780cisR): 16.7 µM
- m (exponent defining the shape of the dose–effect curve) [3]: 1.56
- IC50 ([4]; Homo sapiens): 21.9 µM
- m (exponent defining the shape of the dose–effect curve) [4]: 1.08
- IC50 ([5]; Homo sapiens): 16.6 µM
- m (exponent defining the shape of the dose–effect curve) [5]: 1.25

Compound: O=C(O[C@@H]1Cc2c(O)cc(O)cc2O[C@@H]1c1cc(O)c(O)c(O)c1)c1cc(O)c(O)c(O)c1 [EGCG, epigallocatechin gallate]
- m (exponent defining the shape of the dose–effect curve) [2]: 0.94
- IC50 [2]: 10.3 µM
- m (exponent defining the shape of the dose–effect curve) [3]: 0.93
- IC50 [3]: 8.9 µM
- m (exponent defining the shape of the dose–effect curve) [4]: 1.32
- IC50 [4]: 108 µM
- m (exponent defining the shape of the dose–effect curve) [5]: 0.39
- IC50 [5]: 3.67 µM

Compound: [O-]c1cccc2cccnc12.[O-]c1cccc2cccnc12.[Pd+2] [NH3, [Bis(1,8-quinolato)palladium (II)]]
- Change in Expression: Actin, cytoplasmic 1 ([6]; spot 6): Downregulated
- Fold change: Actin, cytoplasmic 1 ([6]; spot 6, Downregulated): 4.8
- Change in Expression: Vimentin ([6]; spot 12): Downregulated
- Fold Change: Vimentin ([6]; spot 12, Downregulated): 1.63
- Change in Expression: 60 kDa heat shock protein, mitochondrial ([6]; spot 13): Downregulated
- Fold Change: 60 kDa heat shock protein, mitochondrial ([6]; spot 13, Downregulated): 3.23
- Change in Expression: Endoplasmin ([6]; spot 18): Downregulated
- Fold Change: Endoplasmin ([6]; spot 18, Downregulated): 4.56
- Change in Expression: 78 kDa glucose-regulated protein ([6]; spot 45): Downregulated
- Fold Change: 78 kDa glucose-regulated protein ([6]; spot 45, Downregulated): 2.00
- Change in Expression: Polyubiquitin-B ([6]; spot 118): Downregulated
- Fold Change: Polyubiquitin-B ([6]; spot 118, Downregulated): 11.39
- Change in Expression: Histone H3.3 ([6]; spot 155): Downregulated
- Fold Change: Histone H3.3 ([6]; spot 155, Downregulated): 6.63
- Change in Expression: Nucleoside Diphosphate kinase B ([7]; spot Hn70): Downregulated
- Fold Change: Nucleoside Diphosphate kinase B ([7]; spot Hn70, Downregulated): 2.14
- Change in Expression: Annexin A1 ([7]; spot Hn89): Downregulated
- Fold Change: Annexin A1 ([7]; spot Hn89, Downregulated): 1.85
- Change in Expression: Histone H4 ([7]; spot Hn119): Downregulated
- Fold Change: Histone H4 ([7]; spot Hn119, Downregulated): 1.91
- Change in Expression: Actin, cytoplasmic 1 ([8]; spot 1): Downregulated
- Fold change: Actin, cytoplasmic 1 ([8]; spot 1, Downregulated): 1.51
- Change in Expression: 40S ribosomal protein SA ([8]; spot Cn9): Downregulated
- Fold change: 40S ribosomal protein SA ([8]; spot Cn9, Downregulated): 2.98
- Change in Expression: Heat shock cognate 71 kDa protein ([8]; spot Cn16): Downregulated
- Fold change: Heat shock cognate 71 kDa protein ([8]; spot Cn16, Downregulated): 1.69
- Fold change: Keratin, type II cytoskeletal 1 ([8]; spot Cn23, Upregulated): 2.47
- Change in Expression: Elongation factor Tu, mitochondrial ([8]; spot Cn34): Downregulated
- Fold change: Elongation factor Tu, mitochondrial ([8]; spot Cn34, Downregulated): 7.86
- Change in Expression: Citrate synthase, mitochondrial ([8]; spot Cn41): Downregulated
- Fold change: Citrate synthase, mitochondrial ([8]; spot Cn41, Downregulated): 2.93
- Change in Expression: Transitional endoplasmic reticulum ATPase ([8]; spot Cn56): Downregulated
- Fold change: Transitional endoplasmic reticulum ATPase ([8]; spot Cn56, Downregulated): 3.87
- Change in Expression: Cofilin-1 ([8]; spot Cn69): Downregulated
- Fold change: Cofilin-1 ([8]; spot Cn69, Downregulated): 2.27
- Change in Expression: Actin, cytoplasmic 1 ([8]; spot Cn79): Downregulated
- Fold change: Actin, cytoplasmic 1 ([8]; spot Cn79, Downregulated): 2.79
- Change in mean body weight of mice ([9]; both lower (2.5 mg/kg) and higher (5 mg/kg) doses, vs control groups): Decrease in body weight is also significant
- Toxicity compared to cisplatin ([9]; both lower (2.5 mg/kg) and higher doses (5 mg/kg), twenty days): less toxic
- Survival of mice till the end of the experiment ([9]; higher dose 5 mg/kg): only one mouse died
- Survival of mice till the end of the experiment ([9]; lower dose 2.5 mg/kg): All mice were alive
- Creatinine ([9]; 2.5 mg/kg): 0.9 ± 0.2 mg/dL
- SGOT ([9]; 2.5 mg/kg): 53 ± 4 IU/L
- SGPT ([9]; 2.5 mg/kg): 45 ± 3 IU/L
- Creatinine ([9]; 5 mg/kg): 0.7 ± 0.2 mg/dL
- SGOT ([9]; 5 mg/kg): 59 ± 5 IU/L
- SGPT ([9]; 5 mg/kg): 48 ± 4 IU/L
- m (exponent defining the shape of the dose–effect curve) [2]: 1.97
- IC50 [2]: 0.18 µM
- m (exponent defining the shape of the dose–effect curve) [3]: 2.05
- IC50 [3]: 0.23 µM
- m (exponent defining the shape of the dose–effect curve) [4]: 1.96
- IC50 [4]: 0.56 µM
- m (exponent defining the shape of the dose–effect curve) [5]: 2.06
- IC50 [5]: 0.38 µM
- times greater cytotoxicity than cisplatin [10]: around 10 times
- times greater activity than cisplatin [11]: 10 times
- times greater activity than cisplatin [12]: 90 times
- times greater cytotoxicity than cisplatin [13]: around 65 times
- times greater activity than cisplatin [14]: 80 times
